Read-outs that look alike come from different tables or passages of the source.
Key:
[1] = test system: Huh 7.5.1 cells; settings: read-out: CC50 Huh 7.5.1
[2] = test system: SARS-CoV-2 infected Huh 7.5.1 cells; settings: for EC50: read-out: EC50 Huh 7.5.1
[3] = test system: SARS-CoV-2 infected Vero E6 cells; assay type: cell-based; settings: immunofluorescence microscopy
[4] = test system: SARS-CoV-2 infected Vero E6 cells
[5] = test system: Vero E6 cells; settings: read-out: CC50 Vero E6
[6] = test system: SARS-CoV-2 infected Huh 7.5.1 cells; assay: microbe, parasite or virus in culture; settings: Severe acute respiratory syndrome coronavirus 2, Huh-7.5.1, 48 h, read-out: EC50 Huh 7.5.1
[7] = in vitro; settings: African green monkey
[8] = in vitro; settings: human
[9] = molecular target: T1, 3CL^pro (Severe acute respiratory syndrome coronavirus 2, UniProt P0DTD1); settings: for IC50: read-out: IC50 against 3CL^pro
[10] = molecular target: cathepsin L (Homo sapiens, UniProt P07711); assay: Cathepsin L enzymatic assay; assay type: biochemical; settings: read-out: IC50 against Cathepsin L; three independent experiments
[11] = molecular target: SARS-CoV-2 Papain-like protease (PL^pro) (Severe acute respiratory syndrome coronavirus 2, UniProt P0DTD1); assay type: biochemical; settings: read-out: IC50 against PL^pro
[12] = molecular target: beta-secretase 1 (BACE1) (Homo sapiens, UniProt P56817); assay type: biochemical; settings: read-out: IC50 against BACE1; three independent experiments
[13] = molecular target: cathepsin B (Homo sapiens, UniProt P07858); assay: Cathepsin B enzymatic assay; assay type: biochemical; settings: read-out: IC50 against Cathepsin B; three independent experiments
[14] = molecular target: transmembrane serine protease 2 (TMPRSS2) (Homo sapiens, UniProt O15393); assay: TMPRSS2 enzymatic assay; assay type: biochemical; settings: read-out: IC50 against TMPRSS2; three independent experiments
[15] = molecular target: dipeptidyl peptidase-4 (DPP4) (Homo sapiens, UniProt P27487); assay: DPP4 enzymatic assay; assay type: biochemical; settings: read-out: IC50 against DPP4; three independent experiments
[16] = molecular target: Furin (Homo sapiens, UniProt P09958); assay type: biochemical; settings: read-out: IC50 against Furin; three independent experiments
[17] = molecular target: T1, 3CL^pro
[18] = Axial ligand exchange with DMSO, DMF or water followed by 1H-NMR; assay type: physicochemical
[19] = molecular target: T1, 3CL^pro; remark: listed apart in the source
[20] = Aqueous solubility tests; assay type: physicochemical; settings: 0.4–0.1% DMSO or DMF in phosphate-buffered saline

Chain of transmembrane serine protease 2 (TMPRSS2) (O15393 whole entry): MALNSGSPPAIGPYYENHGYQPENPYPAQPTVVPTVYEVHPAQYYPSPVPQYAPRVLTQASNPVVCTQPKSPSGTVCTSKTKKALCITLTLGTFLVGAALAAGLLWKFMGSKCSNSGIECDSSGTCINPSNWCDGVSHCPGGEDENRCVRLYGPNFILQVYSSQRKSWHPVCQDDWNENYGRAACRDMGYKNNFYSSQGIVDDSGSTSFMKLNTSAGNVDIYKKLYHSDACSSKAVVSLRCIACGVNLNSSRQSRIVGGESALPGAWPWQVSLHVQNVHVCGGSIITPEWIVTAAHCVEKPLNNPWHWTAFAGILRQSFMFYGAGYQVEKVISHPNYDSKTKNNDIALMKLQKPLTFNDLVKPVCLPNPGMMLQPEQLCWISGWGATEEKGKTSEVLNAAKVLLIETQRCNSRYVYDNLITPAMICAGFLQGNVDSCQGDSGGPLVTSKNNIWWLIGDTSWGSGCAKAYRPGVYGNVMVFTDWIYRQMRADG
Chain of cathepsin L (P07711 114-333): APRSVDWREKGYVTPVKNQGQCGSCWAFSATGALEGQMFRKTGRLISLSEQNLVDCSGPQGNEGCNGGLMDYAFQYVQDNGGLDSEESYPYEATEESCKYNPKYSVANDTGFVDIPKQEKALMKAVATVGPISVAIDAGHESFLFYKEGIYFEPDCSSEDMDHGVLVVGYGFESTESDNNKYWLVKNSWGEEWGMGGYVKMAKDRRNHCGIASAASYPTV
Chain of beta-secretase 1 (BACE1) (P56817 46-501): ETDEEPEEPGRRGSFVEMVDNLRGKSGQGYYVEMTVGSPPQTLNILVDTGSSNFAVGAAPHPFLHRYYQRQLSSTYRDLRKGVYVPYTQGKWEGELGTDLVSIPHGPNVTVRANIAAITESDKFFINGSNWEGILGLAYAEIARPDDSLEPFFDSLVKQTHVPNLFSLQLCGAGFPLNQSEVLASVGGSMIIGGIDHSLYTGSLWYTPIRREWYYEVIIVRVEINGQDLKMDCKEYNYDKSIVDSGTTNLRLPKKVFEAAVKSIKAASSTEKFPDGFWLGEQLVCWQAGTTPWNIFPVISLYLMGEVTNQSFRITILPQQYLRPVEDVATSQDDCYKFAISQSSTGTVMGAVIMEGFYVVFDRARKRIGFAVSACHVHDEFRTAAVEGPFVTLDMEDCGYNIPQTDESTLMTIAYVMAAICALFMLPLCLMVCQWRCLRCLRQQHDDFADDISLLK
Chain of dipeptidyl peptidase-4 (DPP4) (P27487 whole entry): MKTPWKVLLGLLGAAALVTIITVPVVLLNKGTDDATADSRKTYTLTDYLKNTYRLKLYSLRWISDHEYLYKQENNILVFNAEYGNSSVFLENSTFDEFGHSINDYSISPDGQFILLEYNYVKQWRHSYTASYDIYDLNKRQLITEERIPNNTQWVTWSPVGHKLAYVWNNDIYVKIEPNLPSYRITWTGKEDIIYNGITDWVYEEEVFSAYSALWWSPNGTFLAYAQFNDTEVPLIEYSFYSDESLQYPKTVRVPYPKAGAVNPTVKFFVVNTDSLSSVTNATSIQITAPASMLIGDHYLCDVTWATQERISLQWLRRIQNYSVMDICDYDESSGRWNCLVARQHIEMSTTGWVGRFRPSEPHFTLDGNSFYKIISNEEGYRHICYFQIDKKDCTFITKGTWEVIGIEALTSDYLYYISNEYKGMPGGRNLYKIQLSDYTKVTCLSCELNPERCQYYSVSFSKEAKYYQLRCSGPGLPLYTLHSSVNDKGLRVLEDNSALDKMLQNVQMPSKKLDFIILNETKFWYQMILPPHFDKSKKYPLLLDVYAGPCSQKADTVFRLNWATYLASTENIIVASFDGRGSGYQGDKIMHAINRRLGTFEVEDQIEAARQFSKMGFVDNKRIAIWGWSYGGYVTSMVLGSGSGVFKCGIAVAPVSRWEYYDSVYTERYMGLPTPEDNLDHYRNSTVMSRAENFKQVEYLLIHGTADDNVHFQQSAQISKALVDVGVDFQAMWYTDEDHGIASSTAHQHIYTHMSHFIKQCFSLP
Chain of Furin (P09958 108-794): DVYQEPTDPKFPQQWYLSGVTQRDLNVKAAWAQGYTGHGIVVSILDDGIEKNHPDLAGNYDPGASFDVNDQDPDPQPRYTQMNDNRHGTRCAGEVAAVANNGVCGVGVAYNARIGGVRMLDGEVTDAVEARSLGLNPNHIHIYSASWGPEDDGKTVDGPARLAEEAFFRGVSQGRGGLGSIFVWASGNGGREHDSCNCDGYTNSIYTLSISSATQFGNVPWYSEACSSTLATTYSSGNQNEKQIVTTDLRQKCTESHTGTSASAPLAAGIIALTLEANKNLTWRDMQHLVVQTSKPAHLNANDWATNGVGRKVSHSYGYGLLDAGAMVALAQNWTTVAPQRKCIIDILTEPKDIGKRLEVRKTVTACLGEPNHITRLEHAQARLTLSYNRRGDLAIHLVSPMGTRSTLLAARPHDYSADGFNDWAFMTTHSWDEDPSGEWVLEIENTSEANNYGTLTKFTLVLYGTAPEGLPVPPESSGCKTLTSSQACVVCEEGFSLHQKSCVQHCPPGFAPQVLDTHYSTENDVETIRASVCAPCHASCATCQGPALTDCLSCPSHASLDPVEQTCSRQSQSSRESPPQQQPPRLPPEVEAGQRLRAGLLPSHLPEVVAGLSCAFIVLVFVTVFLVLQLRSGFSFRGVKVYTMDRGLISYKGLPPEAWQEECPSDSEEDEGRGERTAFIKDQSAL

SMILES: CN1CCN(C(=O)N[C@@H](Cc2ccccc2)C(=O)N[C@H](/C=C/S(=O)(=O)c2ccccc2)CCc2ccccc2)CC1 [K777]
- CC50 [1]: > 2 µM
- EC50 [2]: > 2 µM
- concentration protecting cells from viral infection [3]: ≤ 125 nM
- SI Vero E6 (CC50/EC50; therapeutic index) ([4]; Vero E6 cells): >222
- EC50 ([4]; read-out: EC50 Vero E6): 0.009 ± 0.002 µM
- CC50 [5]: > 2 µM

SMILES: CCC(CC)COC(=O)[C@H](C)N[P@](=O)(OC[C@H]1O[C@@](C#N)(c2ccc3c(N)ncnn23)[C@H](O)[C@@H]1O)Oc1ccccc1 [Remdesivir]
- EC50 [6]: < 0.04 µM
- CC50 [7]: > 20 µM
- SI Huh 7.5.1 (CC50/EC50; therapeutic index) ([2]; Huh 7.5.1 cells): >500
- SI Vero E6 (CC50/EC50; therapeutic index) ([4]; Vero E6 cells): >4
- CC50 [8]: > 20 µM

SMILES: O=C([O-])c1ncccc1F.[C-]#[O+].[C-]#[O+].[C-]#[O+].[Re+] [Compound 2]
- IC50 [9]: 19 ± 3.7 µM

SMILES: COc1cccc(C(=O)[O-])n1.[C-]#[O+].[C-]#[O+].[C-]#[O+].[Re+] [Compound 39]
- IC50 [9]: 8.5 ± 1.9 µM

SMILES: Nc1ccnc(C(=O)[O-])c1.[C-]#[O+].[C-]#[O+].[C-]#[O+].[Re+] [Compound 20]
- IC50 [9]: 8.4 ± 2.2 µM

SMILES: Nc1cccc(C(=O)[O-])n1.[C-]#[O+].[C-]#[O+].[C-]#[O+].[Re+] [Compound 40]
- IC50 [9]: 10.9 ± 3.1 µM

SMILES: O=C([O-])c1cc(O)ccn1.[C-]#[O+].[C-]#[O+].[C-]#[O+].[Re+] [Compound 18]
- IC50 [10]: 67 ± 9 µM
- IC50 [11]: > 100 µM
- IC50 [12]: 76 ± 8 µM
- IC50 [13]: > 100 µM
- IC50 [14]: > 100 µM
- IC50 [15]: > 100 µM
- IC50 [16]: > 100 µM
- IC50 [9]: 4.6 ± 0.5 µM

SMILES: O=C([O-])c1cccc(O)n1.[C-]#[O+].[C-]#[O+].[C-]#[O+].[Re+] [Compound 38]
- IC50 [9]: 8.8 ± 3.4 µM

SMILES: O.O=C([O-])c1ccccn1.[C-]#[O+].[C-]#[O+].[C-]#[O+].[Re+] [Compound 1, [Re(pic)(CO)3(H2O)]]
- IC50 [10]: 53 ± 7 µM
- Re content bound to protein [17]: 0.7 ± 0.2 equivalents of Re per 3CL^pro
- IC50 [11]: > 100 µM
- IC50 [12]: 83 ± 6 µM
- IC50 [13]: > 100 µM
- IC50 [14]: > 100 µM
- IC50 [15]: > 100 µM
- IC50 [16]: > 100 µM
- time to full exchange of the axial ligand in DMF-d7 [18]: ≤ 6 h
- aqua ligand exchange in DMSO-d6 ([18]; within 5 min): rapid exchange of the aqua ligand with DMSO
- IC50 [9]: 9.1 ± 1.8 µM
- adduct formation with 3CL^pro (deconvoluted mass spectrum) [19]: a single attached metal complex
- adduct formation with the GC376-3CL^pro adduct (binding competition) [19]: did not show the formation of new products
- precipitate or aggregate formation by DLS [20]: No particle formation or aggregation was observed

SMILES: CS(C)=O.O=C([O-])c1ccccn1.[C-]#[O+].[C-]#[O+].[C-]#[O+].[Re+] [1DMSO, [Re(pic)(CO)3(DMSO)]]
- CC50 [1]: 16.5 ± 1.3 µM
- SI Huh 7.5.1 (CC50/EC50; therapeutic index) [2]: 9
- EC50 [2]: 1.8 ± 0.5 µM
- aqueous stability of the DMSO adduct ([18]; 2 : 8 DMSO-d6 : H2O, up to 6 h): the majority of the compound remained as the DMSO adduct even after 6 h
- SI Vero E6 (CC50/EC50; therapeutic index) [4]: >9
- effect of extending the preincubation time on 3CL^pro inhibition [9]: strongly enhance the inhibitory activity over time
- IC50 [9]: 16.5 ± 3.4 µM

Reference: PMC9848156 (Chemical Science, 2022)
